Where two headings read alike, the source gives them in different places.
Key:
[1] = system: advanced or metastatic solid tumors, including lymphoma; assay: Phase I/II study of azacitidine with nanoparticle albumin bound paclitaxel; format: in vivo, human; conditions: azacitidine sc days 1-5, then paclitaxel 100 mg/m^2 days 8, 15, 22 of 28-day cycle
Method: Patients with evaluable advanced or metastatic solid tumors, including lymphoma, adequate organ function, PS 0-2, and unlimited prior cytotoxic chemotherapies, including taxanes, were eligible. Cohorts of 3-6 patients were enrolled and treated.
Escalating doses of azacitidine (75-100 mg/m^2) were administered to patients subcutaneously on days 1-5, followed by a fixed dose of paclitaxel ([…]) on days 8, 15, and 22 of a 28-day cycle, for a total of 6 cycles. Serum and/or tissue samples, where appropriate, were collected for correlative studies.
Patients were initially permitted to have an unlimited number of prior chemotherapies. […] All affected patients had 4 or more prior cytotoxic regimens. […] Cohort 3 was treated at the next dose level (azacitidine 100 mg/m^2). […] Therefore, the maximum tolerated dose (MTD) of azacitidine in this regimen is 75 mg/m^2. […] To date, 16 patients have enrolled in the phase I part. Two patients were removed before completing cycle 1 because of disease progression. One patient was removed after cycle 4 for noncompliance.

[2] = cited from earlier work
[3] = system: mice implanted with H460 cell lines; assay: Tolerable dose of decitabine, viability (weight loss and death); format: in vivo, SCID mice
Method: To establish a maximally tolerated dose to be used in experiments involving pretreatment with decitabine, groups of mice implanted with H460 cell lines were tested at four dose levels of decitabine, i.e., 0.75, 1.5, 2, and 4 mg/kg, administered intraperitoneally as a single dose and monitored for viability (weight loss and death). Two mice from each group were killed 48 hours after completing decitabine treatment alone and tumor xenografts harvested to affirm SPARC-expression status. For combination drug treatment, Abraxane® was administered by tail vein injection at 30 mg/kg/d for 5 consecutive days. Taxol and decitabine were used at 13.4 mg/kg/d and 1.5 mg/kg/d, respectively. […] At the end of drug treatment, the mice were killed. Xenografts were harvested and assayed to determine SPARC status.
The study evaluates tumor SPARC expression upregulation on treatment with decitabine in vitro and in vivo. To establish a tolerable dose to be used in experiments in vivo, groups of mice implanted with H460 cell lines were tested at four dose levels of decitabine, i.e., 0.75, 1.5, 2, and 4 mg/kg, respectively. This is based on prior publication showing that decitabine administered twice daily intraperitoneally for 5 days was toxic at 10 mg/kg/dose, and 2 mg/kg dose was associated with mild toxicity (Guo, Z S et al Cancer Res 2006 22:1105-1113). […] Nevertheless, decitabine at 2 and 4 mg/kg was toxic with 6/8 (75%) mice dead between 8 and 12 days after only one decitabine dose (without Abraxane® treatment). Decitabine dose at 1.5 mg/kg was subsequently used in the combination experiments.

SPARC [4] = assay: SPARC promoter methylation (MSP) and SPARC expression (RT-PCR, Western blot) in NSCLC cell lines in vitro; format: cell-based, human; conditions: 3 days in vitro
Method: Total RNA was extracted from the samples with Trizol reagent (Invitrogen; Carlsbad, Calif.), and first-strand complementary DNA was generated using SuperScript III First-Strand Synthesis System (Invitrogen). The forward polymerase chain reaction (PCR) amplification primer of SPARC was 5′-[…]-3′ (Ex8-S, SEQ ID NO:1), and the reverse primer was 5-[…]-3′ (Ex9-AS, SEQ ID NO:2). Semiquantitative PCR was carried out for 4 minutes at 95° C. for initial denaturation, followed by 33 cycles of 94° C. for 25 seconds, 56° C. for 25 seconds, and 68° C. for 40 seconds. Glyceraldehyde-3-phosphate dehydrogenase (GAPDH) was used as endogenous control. Quantitative real-time (RT) PCR was done with SYBR GreenER qPCR superMix for ABI PRISM (Invitrogen) using ABI 7300 RT PCR system (Invitrogen), and GAPDH was used as a housekeeping gene for purpose of normalization.
The objective of this study was to determine if demethylation of the promoter region of the SPARC gene results in reexpression of the SPARC gene in cancer cells. DNA methylation in gene promoter regions is a mechanism to silence gene expression. The loss of SPARC expression in a large proportion of NSCLC specimens may be due to the methylation in the promoter region of SPARC gene was investigated. Representative samples of NSCLC cell lines or PD xenografts were treated with decitabine (5 μM) in vitro for three days and promoter methylation was analyzed.
Genomic DNA was obtained from cell lines and primary tumors by using DNeasy Blood and Tissue Kit (Qiagen; Valencia, Calif.) according to the manufacturer's handbook. The DNA methylation pattern in the CpG island of SPARC was determined using the method of methylation-specific PCR (MSP) and with the EZ DNA Methylation Kit (Zymo research, Irvine, Calif.). Primers for the methylated reaction were Sparc-unmsp-F: 5′-[…]-3′ (sense, SEQ ID NO:3), Sparcunmsp-R: 5′-[…]-3′ (antisense, SEQ ID NO:4), sparc-msp-F: 5′-[…]-3′ (sense, SEQ ID NO:5), and sparc-msp-R: 5′-[…]-3′ (antisense, SEQ ID NO:6). PCR amplification was carried out with bisulfite-treated DNA as a template using specific primer sequences for the methylated and unmethylated status of the gene. Water blanks were included with each assay. PCR amplification was carried out for 12 minutes at 94° C. for initial denaturation, followed by 40 cycles of 94° C. for 30 seconds, 58° C. for 25 seconds, and 68° C. for 45 seconds. Results were confirmed by repeating the bisulfate treatment and MSP for all samples. PCR products were visualized on 1.5% agarose gels.
Western blot analysis was carried out using standard methods. Polyclonal antihuman SPARC antibody was purchased from R&D System (Minneapolis, Minn.). […] The levels of β-actin (Sigma) were measured as control for equal loading. […]

SPARC [5] = assay: SPARC expression in NSCLC xenografts in vivo; design: species or system SCID mice
Method: Western blot analysis was carried out using standard methods. Polyclonal antihuman SPARC antibody was purchased from R&D System (Minneapolis, Minn.). NSCLC cell lines A549, H460, and H157 were treated with 5 μM decitabine for 3 days in vitro and then harvested for RT-PCR and Western blot analysis. PD NSCLC xenografts and H460 xenografts treated with or without decitabine at 1.5 mg/kg/d. Xenografts were harvested for SPARC expression analysis. GAPDH were used as the endogenous control. Xenograft lysates were prepared and subjected to immunoblot analysis using 50 μg of cellular protein as described previously (Yu, C. et al. Blood 2003 102:3765-3774). The levels of β-actin (Sigma) were measured as control for equal loading. Immunoblots were developed with enhanced chemiluminescence (Amersham Bioscience, Golden Valley, Minn.).
(§1) To establish a maximally tolerated dose to be used in experiments involving pretreatment with decitabine, groups of mice implanted with H460 cell lines were tested at four dose levels of decitabine, i.e., 0.75, 1.5, 2, and 4 mg/kg, administered intraperitoneally as a single dose and monitored for viability (weight loss and death). Two mice from each group were killed 48 hours after completing decitabine treatment alone and tumor xenografts harvested to affirm SPARC-expression status. […]

NSCLC_16591 xenograft = assay: Tumor xenograft growth in vivo, SPARC-negative PD NSCLC xenograft; design: species or system SCID mice; conditions: Abraxane 30 mg/kg, taxol 13.4 mg/kg (equitoxic)
Method: (§2) Experimental studies were carried out using 6- to 8-week-old CB.17 severe combined immunodeficiency (SCID)/SCID with an average body weight ˜25 g. H460 (5×10^6 cells) or PD NSCLC xenografts (mouse-to-mouse passage), which were cut into small fragments (2-3 mm in size), were implanted subcutaneously at the flank region. Tumor growth was monitored by periodic visual inspection at the site of implantation, and the dimensions of the xenografts were measured every 2 to 3 days. Tumor volume was calculated using the following formula: V=LD×(SD)^2/2, where V is the tumor volume, LD is the longest tumor diameter, and SD is the shortest tumor diameter.
as §1, with “death).” for “death). Two mice from each group were killed 48 hours after completing decitabine treatment alone and tumor xenografts harvested to affirm SPARC-expression status.”
(§3) To describe the observed variability in the in vivo data and test for differences between groups, a multivariate linear model was fit to each dependent variable (tumor volume). […] Difference was considered statistically significant when the calculated p value was less than 0.05.

NSCLC_16465 xenograft = assay: as above; design: species or system SCID mice; conditions: taxol 13.4 mg/kg
Method: as §2
as §1, with “death).” for “death). Two mice from each group were killed 48 hours after completing decitabine treatment alone and tumor xenografts harvested to affirm SPARC-expression status.”
as §3

NSCLC_15946 xenograft = assay: Tumor xenograft growth in vivo, SPARC-intermediate PD NSCLC xenograft; design: species or system SCID mice; conditions: Abraxane 30 mg/kg, taxol 13.4 mg/kg (equitoxic)
Method: as §2
as §1, with “death).” for “death). Two mice from each group were killed 48 hours after completing decitabine treatment alone and tumor xenografts harvested to affirm SPARC-expression status.”
as §3

NSCLC_16372 xenograft = assay: Tumor xenograft growth in vivo, SPARC-positive PD NSCLC xenograft; design: species or system SCID mice; conditions: Abraxane 30 mg/kg, taxol 13.4 mg/kg (equitoxic)
Method: as §2
as §1, with “death).” for “death). Two mice from each group were killed 48 hours after completing decitabine treatment alone and tumor xenografts harvested to affirm SPARC-expression status.”
as §3

[6] = decitabine at 2 and 4 mg/kg ip, without Abraxane treatment

SMILES: Nc1ncn([C@@H]2O[C@H](CO)[C@@H](O)[C@H]2O)c(=O)n1 [azacitidine, 5-azacytidine]
- maximum tolerated dose (MTD) of azacitidine in this regimen [1]: 75 mg/m^2

SMILES: Nc1ncn([C@H]2C[C@H](O)[C@@H](CO)O2)c(=O)n1 [decitabine, 5-aza-2′-deoxycytidine]
- toxicity ([2]; 2 mg/kg dose twice daily intraperitoneally for 5 days): mild toxicity
- toxicity ([2]; 10 mg/kg/dose twice daily intraperitoneally for 5 days): toxic
- toxicity ([3]; decitabine at 2 and 4 mg/kg ip single dose): toxic
- mice dead between 8 and 12 days after only one decitabine dose [3, 6]: 75%
- mice dead between 8 and 12 days after only one decitabine dose (number/total) [3, 6]: 6/8
- SPARC expression in NSCLC cell lines (SPARC [4]; A549, H460 and H157, decitabine 5 μM): up-regulated
- SPARC expression (SPARC [4]; H460 cells, decitabine 5 μM): up-regulated
- SPARC protein (Western blot) (SPARC [4]; H460 cells, decitabine 5 μM): upregulation
- unmethylated promoter of SPARC (methylation-specific PCR) (SPARC [4]; H460 cells, decitabine 5 μM): increase
- SPARC expression in xenografts (SPARC [5]; NSCLC_16325, NSCLC_16384 and H460 xenografts, decitabine 1.5 mg/kg): up-regulated
- reexpression of SPARC in H460 xenografts (SPARC [5]; decitabine 0.75, 1.5, 2 and 4 mg/kg ip): dose-dependent reexpression

SMILES: CC(=O)O[C@H]1C(=O)[C@@]2(C)[C@H]([C@H](OC(=O)c3ccccc3)[C@]3(O)C[C@H](OC(=O)[C@H](O)[C@@H](NC(=O)c4ccccc4)c4ccccc4)C(C)=C1C3(C)C)[C@]1(OC(C)=O)CO[C@@H]1C[C@@H]2O [taxol]
- effect on tumor growth compared with vehicle control (NSCLC_16591 xenograft): Neither administration of taxol nor administration of Abraxane® showed any effect on tumor growth
- tumor growth compared with vehicle control (NSCLC_16465 xenograft): no difference compared with vehicle control
- tumor growth compared with vehicle control (NSCLC_15946 xenograft): significantly inhibited
- xenograft growth compared with vehicle control (NSCLC_16372 xenograft): suppressed

Reference: patent US20190167629A1, “COMBINATION THERAPY METHODS FOR TREATING PROLIFERATIVE DISEASES” (Abraxis BioScience, LLC, priority 2010, published 2019)
